Earlier results as cited in patent US20050038005A1, “Method of intermittent administration of a pharmaceutical for the treatment of conditions associated with a female's menstrual cycle” (priority 2003, published 2005).

Experiments:
[1] = calcium supplementation; especially pain and water retention
[2] = magnesium supplementation, oral
[3] = intermittent administration for approximately fourteen days prior to the start of menses
[4] = administration of fluoxetine

For [Ca+2] [Calcium], the “alleviation of symptoms associated with PMS” value [1] is given as “effective treatment for alleviating some of the symptoms associated with PMS”.
In the case of [Mg+2] [Magnesium], the “relief of symptoms of PMS” value [2] is listed as “relieve some symptoms of PMS, particularly pain and mood fluctuations”.
For CNCCC(Oc1ccc(C(F)(F)F)cc1)c1ccccc1 (stereo not shown) [fluoxetine], the “efficacy in treating the symptoms of PMS” value [3] is given as “efficacious in treating the symptoms of PMS” and the “amelioration of symptoms of PMS/PMDD” value [4] is given as “ameliorate the symptoms of PMS/PMDD”.
